Data on 17 molecules can be found in PubChem BioAssay (NCI).

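Tested at 5 concentrations; 48 h exposure; 96-well plates; endpoints linearly interpolated, else capped at highest concentration. The concentration for full growth arrest is given as TGI.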 Some results are limits rather than exact numbers.

Test systems include U251 CNS; OVCAR-4 ovarian; 786-0 renal; MALME-3M melanoma; UO-31 renal; SF-539 CNS; HOP-62 NSCLC; HCT-15 colon.
Test in all cases: growth of human tumour cells (NCI), 48 h

For `Cc1cc(=O)n(-c2ccccc2)c(=O)o1`, the TGI in the experiment on U251 CNS, in the experiment on OVCAR-4 ovarian, in the experiment on 786-0 renal, in the experiment with MALME-3M melanoma, in the experiment with UO-31 renal and with SF-539 CNS was above 100 µM each time. The TGI in the experiment on HOP-62 NSCLC and with HCT-15 colon was above 100 µM in each case.

With `COC(=O)[C@H]1[C@H]2C[C@@H]3c4[nH]c5cc(OC)ccc5c4CCN3C[C@H]2C[C@@H](OC(=O)c2cc(OC)c(OC)c(OC)c2)[C@@H]1OC`, the TGI in the experiment on U251 CNS turned out to be 28.2 µM; in the experiment on OVCAR-4 ovarian, 27.8 µM; with 786-0 renal it was 27.7 µM; in the experiment on MALME-3M melanoma it was 34.2 µM; in the experiment on UO-31 renal it was 43.5 µM; in the experiment on SF-539 CNS it was 23.8 µM. Further, the TGI with HOP-62 NSCLC stood at 28.1 µM; in the experiment on HCT-15 colon it was 87.8 µM.

As for `O=C(c1ccccc1)C(c1ccccc1)C1(O)C(=O)Nc2ccccc21` (stereo not drawn), the TGI with OVCAR-4 ovarian, in the experiment on 786-0 renal, in the experiment with MALME-3M melanoma, with UO-31 renal, in the experiment on SF-539 CNS and in the experiment on HOP-62 NSCLC was above 100 µM in each case. Also, the TGI in the experiment on HCT-15 colon was above 100 µM.

Take `[N-]=[N+]=Nc1ccc(CCN2CCN(c3cccc(C(F)(F)F)c3)CC2)cc1I`: the TGI with U251 CNS, with OVCAR-4 ovarian, in the experiment on 786-0 renal, in the experiment with MALME-3M melanoma, with UO-31 renal and with SF-539 CNS was above 100 µM throughout. This molecule also gave a TGI with HCT-15 colon above 100 µM.

With `CC1(C)C(c2ccccc2)C12CCC1(C2=O)C(c2ccccc2)C1(C)C` (stereo not drawn), the TGI with U251 CNS is 34.9 µM; in the experiment on OVCAR-4 ovarian it was above 100 µM; in the experiment on 786-0 renal it was 66.2 µM; in the experiment on MALME-3M melanoma, 72.5 µM; in the experiment on UO-31 renal, 58.9 µM; in the experiment with SF-539 CNS, 75.2 µM. Moreover, the TGI stood at 60.5 µM with HOP-62 NSCLC and 51.8 µM in the experiment on HCT-15 colon.

For the molecule `CN1C(OCc2ccccc2)c2c(ccc3c2OCO3)C2C=Cc3cc4c(cc3C21)OCO4` (stereo not drawn), the TGI in the experiment with U251 CNS turned out to be 2.84 µM; with OVCAR-4 ovarian it was 3.06 µM; in the experiment on 786-0 renal, 2.65 µM; in the experiment on MALME-3M melanoma, 2.52 µM; in the experiment with UO-31 renal it was 2.59 µM; in the experiment with SF-539 CNS, 2.99 µM. Further, the TGI was 2.96 µM in the experiment on HOP-62 NSCLC and 1.83 µM in the experiment on HCT-15 colon.

Take `C[C@@H](C1CCC2C3C(=CC(=O)[C@@]21C)[C@H](C)[C@]1(CCC(=O)O1)C1OC31)[C@H]1C[C@]2(C)O[C@@](C)(O1)OC2(C)C` (stereo partly drawn): the TGI in the experiment on U251 CNS, with 786-0 renal, in the experiment on UO-31 renal, in the experiment on SF-539 CNS and in the experiment with HCT-15 colon was above 100 µM each time.

In the case of `CCCN(CCCN)/[N+]([O-])=N\O`, the TGI with U251 CNS, in the experiment with OVCAR-4 ovarian, with 786-0 renal, in the experiment with MALME-3M melanoma, with UO-31 renal and with SF-539 CNS was above 100 µM throughout. Besides, the TGI in the experiment on HOP-62 NSCLC and in the experiment with HCT-15 colon was above 100 µM in each case.

In the case of `COc1c(C2=NC(C(C)C)CO2)ccc2ccccc12` (stereo not drawn), the TGI in the experiment with OVCAR-4 ovarian, with 786-0 renal, in the experiment with MALME-3M melanoma, in the experiment on UO-31 renal, with SF-539 CNS and in the experiment with HOP-62 NSCLC was above 100 µM each time. The TGI in the experiment with HCT-15 colon is above 100 µM.

As to `CC(C)N(C(=O)C12C3C4C5C3C1(C(=O)N(C(C)C)C(C)C)C5(C#N)C42)C(C)C` (stereo not drawn), the TGI in the experiment with U251 CNS, in the experiment with OVCAR-4 ovarian, in the experiment on 786-0 renal, in the experiment on MALME-3M melanoma, with UO-31 renal and in the experiment on SF-539 CNS was above 100 µM each time. Further, the TGI in the experiment with HOP-62 NSCLC and in the experiment on HCT-15 colon was above 100 µM throughout.

Turning to `O=C1c2ccccc2C(=O)C2C1C1C(=O)c3ccccc3C(=O)C21` (stereo not drawn), the TGI in the experiment on U251 CNS, in the experiment with OVCAR-4 ovarian, in the experiment with 786-0 renal, with MALME-3M melanoma, with UO-31 renal and in the experiment on SF-539 CNS was above 100 µM in each case. Moreover, the TGI in the experiment on HOP-62 NSCLC and with HCT-15 colon was above 100 µM in each case.

As to `N=CCCN(CCC=N)c1ccc(/C=C2\CN(NC(=O)c3ccc(Cl)cc3)C(c3ccccc3)=N2)cc1`, the TGI in the experiment with U251 CNS is 76.1 µM; with OVCAR-4 ovarian it was above 100 µM; with 786-0 renal, above 100 µM; in the experiment on MALME-3M melanoma, above 100 µM; in the experiment with UO-31 renal it was above 100 µM; in the experiment with SF-539 CNS, above 100 µM. Moreover, the TGI in the experiment on HOP-62 NSCLC and with HCT-15 colon was above 100 µM throughout.

For the molecule `CC(C)(C)N/N=C(\Cc1occc(=O)c1O)C(=O)Nc1ccc([N+](=O)[O-])cc1[N+](=O)[O-]`, the TGI with U251 CNS, in the experiment on OVCAR-4 ovarian, in the experiment on 786-0 renal, in the experiment on MALME-3M melanoma, in the experiment on UO-31 renal and with SF-539 CNS was above 100 µM throughout. Moreover, the TGI in the experiment on HOP-62 NSCLC and with HCT-15 colon was above 100 µM each time.

In the case of `COc1cc(=O)oc(/C=C/C=O)c1C`, the TGI worked out at 28.6 µM with U251 CNS; 32.5 µM in the experiment with OVCAR-4 ovarian; 42 µM with 786-0 renal; 39.4 µM in the experiment with MALME-3M melanoma; 39.4 µM in the experiment with UO-31 renal; 34.2 µM with SF-539 CNS. This molecule displayed a TGI in the experiment on HOP-62 NSCLC of 34.9 µM.

Regarding `Nc1ncnc2c1ncn2C1OC(CSC(F)(F)F)C(O)C1O` (stereo not drawn), the TGI with U251 CNS, in the experiment with OVCAR-4 ovarian, in the experiment on 786-0 renal, in the experiment with MALME-3M melanoma, in the experiment on UO-31 renal and in the experiment with SF-539 CNS was above 100 µM each time. The TGI in the experiment with HOP-62 NSCLC and in the experiment with HCT-15 colon was above 100 µM throughout.

Turning to `CCC1=C(C)/C(=C/c2[nH]c(C(Br)Br)c(CC)c2C)N=C1C(Br)Br`, the TGI in the experiment on U251 CNS is 86.4 µM; in the experiment on 786-0 renal, above 100 µM; in the experiment with MALME-3M melanoma, 76.4 µM; with UO-31 renal, above 100 µM; in the experiment on SF-539 CNS, above 100 µM; in the experiment with HOP-62 NSCLC, above 100 µM. The molecule further had a TGI in the experiment with HCT-15 colon above 100 µM.

In the case of `O=C(CC(=O)c1ccc([N+](=O)[O-])cc1)C(=O)Nc1nccs1`, the TGI in the experiment with U251 CNS, with OVCAR-4 ovarian, in the experiment with 786-0 renal, in the experiment with MALME-3M melanoma, in the experiment with UO-31 renal and in the experiment on SF-539 CNS was above 100 µM throughout. Also, the TGI in the experiment on HOP-62 NSCLC and in the experiment on HCT-15 colon was above 100 µM in each case.
